{
  "source": "paper PMC7217877",
  "about": "“N-AS-triggered SPMs are direct regulators of microglia in a model of Alzheimer’s disease” (Nature Communications, 2020)",
  "key": {"APP/PS1 mice": {"system": "APP/PS1 mice", "assay": "open field test (Supplementary Fig 7f-i)", "type": "in vivo, mouse", "design": "open field test, sFig 7f (sheet untitled): unit not given here", "method": "Transgenic mouse lines over-expressing the hAPP695swe (APP) and presenilin-1M146V (PS1) mutations were originated from GlaxoSmithKline (Harlow, UK)[32] and maintained as described previously. We purchased 5×FAD mice from Jackson Labs (Stock number. 34840-JAX). Because APP/PS1 and 5xFAD mice show sex differences in disease progression, we used only male mice. To examine possible therapeutic effect of N-AS and aspirin in APP/PS1 mice, the N-AS (30 mg kg^−1, Sigma-Aldrich, 01912) was injected daily s.c. for 8 weeks to 7-months-old APP/PS1 mice until the age of 9 months, and aspirin (2 mg kg^−1, Sigma-Aldrich, A5376)[33] was administrated orally to 7-months-old APP/PS1 mice for 8 weeks. […] Block randomization method was used to allocate the animals to experimental groups. To eliminate the bias, we were blinded in experimental progress such as data collection and data analysis. Mice were housed at temperature of 22 °C and a 12 h day/12 h night cycle with free access to tap water and food pellets. All protocols were approved by the Kyungpook National University Institutional Animal Care and Use Committee. […] Freezing was analyzed for 5 min. […] Overall activity in the box was measured, and the amount of time and distance traveled in the center arena was noted. […] The total number of transitions, latency to first enter the light chamber, distance traveled, and time spent in each chamber were recorded."}, "5×FAD mice": {"system": "5×FAD mice", "assay": "western blot of synaptophysin, MAP2, synapsin1, PSD95 (Supplementary Fig 8f-i)", "type": "in vivo, mouse", "design": "synaptophysin (western blot) / MAP2 (western blot) / synapsin1 (western blot): scale not given here", "method": "Samples were lysed in RIPA buffer (Cell signaling Technologies), then subjected to SDS-PAGE and transferred to a nitrocellulose membrane. Membranes were blocked with 5% milk, incubated with primary antibody and then incubated with the appropriate horseradish peroxidase-conjugated secondary antibody. […] We performed densitometric quantification using the ImageJ software (National Institutes of Health). Images have been cropped for presentation.\nTransgenic mouse lines over-expressing the hAPP695swe (APP) and presenilin-1M146V (PS1) mutations were originated from GlaxoSmithKline (Harlow, UK)[32] and maintained as described previously. We purchased 5×FAD mice from Jackson Labs (Stock number. 34840-JAX). Because APP/PS1 and 5xFAD mice show sex differences in disease progression, we used only male mice. To examine possible therapeutic effect of N-AS and aspirin in APP/PS1 mice, the N-AS (30 mg kg^−1, Sigma-Aldrich, 01912) was injected daily s.c. for 8 weeks to 7-months-old APP/PS1 mice until the age of 9 months, and aspirin (2 mg kg^−1, Sigma-Aldrich, A5376)[33] was administrated orally to 7-months-old APP/PS1 mice for 8 weeks. Also, to confirm possible therapeutic efficacy of N-AS in 5×FAD, the N-AS (30 mg kg^−1, Sigma-Aldrich, 01912) was injected daily s.c. for 4 weeks to 3-months-old 5×FAD mice until the age of 4 months. Block randomization method was used to allocate the animals to experimental groups. To eliminate the bias, we were blinded in experimental progress such as data collection and data analysis. Mice were housed at temperature of 22 °C and a 12 h day/12 h night cycle with free access to tap water and food pellets. All protocols were approved by the Kyungpook National University Institutional Animal Care and Use Committee."}},
  "note": "Where “and” joins values, the source holds several entries; their conditions need not be identical. Identical values can stand only once.",
  "data": [
    {"smiles": "CCCCCCCCCCCCC/C=C/[C@@H](O)[C@H](CO)NC(C)=O", "note": "[N-AS, N-((2S,3R,E)-1,3-Dihydroxyoctadec-4-en-2-yl)acetamide]", "values": [
      {"measurement": "open field test, sFig 7f (sheet untitled)", "setting": "APP/PS1 mice; APP/PS1 + N-AS, sums to 600 with sFig 7g", "value": "520.5 and 509.5 and 517.5 and 503.5 and 522.5 and 508 and 406.5 and 460.5"},
      {"measurement": "locomotion and spontaneous activity, open field test", "setting": "APP/PS1 mice; N-AS vs APP/PS1", "value": "improved locomotion and spontaneous activity"},
      {"measurement": "synaptophysin (western blot)", "setting": "5×FAD mice; 5xFAD+N-AS, sFig 8f (sheet untitled)", "value": "4.053 and 6.357 and 5.065 and 6.083 and 5.205 and 5.711"},
      {"measurement": "MAP2 (western blot)", "setting": "5×FAD mice; 5xFAD+N-AS, sFig 8g (sheet untitled)", "value": "2.523 and 3.013 and 3.332 and 2.975 and 2.768 and 3.172"},
      {"measurement": "PSD95 (western blot)", "setting": "5×FAD mice; 5xFAD+N-AS, sFig 8i (sheet untitled)", "value": "1.388 and 2.072 and 1.927 and 1.53 and 1.73 and 1.999"},
      {"measurement": "synapsin1 (western blot)", "setting": "5×FAD mice; 5xFAD+N-AS, sFig 8h (sheet untitled)", "value": "3.576 and 2.661 and 2.523 and 3.332 and 3.119 and 2.592"},
      {"measurement": "synapse activity", "setting": "5×FAD mice; 5×FAD, N-AS 30 mg kg^-1 daily s.c. 4 weeks", "value": "similarly improved AD pathology of 5×FAD mice"}
    ]}
  ]
}
